Measured values reported in ChEMBL document CHEMBL1131358, “An approach to use an unusual adenosine transporter to selectively deliver polyamine analogues to trypanosomes” (Bioorg Med Chem Lett, 1998).

Legend:
Trypanosoma brucei [1] = assay: Inhibitory activity against adenosine uptake through P2 adenosine transporter of blood stream Trypanosoma brucei trypomastigotes at the concentration 100 ug/mL
Trypanosoma brucei [2] = assay: Inhibitory activity against adenosine uptake through P2 adenosine transporter of blood stream Trypanosoma brucei trypomastigotes at the concentration 10 ug/mL
Trypanosoma brucei [3] = assay: Inhibitory activity against adenosine uptake through P2 adenosine transporter of blood stream Trypanosoma brucei trypomastigotes at the concentration 1 ug/mL
[4] = test system: Trypanosoma brucei brucei; assay: In vitro activity against bloodstream from trypomastigotes.; format: functional, organism-based
[5] = test system: Trypanosoma brucei brucei; assay: In vitro activity against Trypanosoma brucei trypomastigotes form; format: functional, organism-based

Compound | inhibition (Trypanosoma brucei [1]) | inhibition (Trypanosoma brucei [2]) | inhibition (Trypanosoma brucei [3]) | IC50 [4] | IC50 [5]
N=C(N)c1ccc(/N=N/Nc2ccc(C(=N)N)cc2)cc1 [DIMINAZENE] | 99% | 84% | 67% | 0.003 µM | –
NCCCNCCCCN(CCCN)c1nc(N)nc(N)n1 | 60% | 44% | 24% | – | 12 µM
Nc1nc(N)nc(NCCCNCCCCCCCNCCCNc2nc(N)nc(N)n2)n1 | 93% | 63% | 36% | 110 µM | –
NCCCNCCCCCCCNCCCNc1nc(N)nc(N)n1 | 77% | 32% | 12% | 21 µM | –
NCCCNCCCCN(CCCN)CCCNc1nc(N)nc(N)n1 | 37% | 17% | 2% | – | 24 µM
NCCCCN(CCCN)CCCNc1nc(N)nc(N)n1 | 61% | 5% | 7% | – | > 200 µM
Nc1nc(N)nc(NCCCNCCCNCCCCCCCNCCCNCCCNc2nc(N)nc(N)n2)n1 | 88% | 18% | 0% | 24 µM | –
Nc1[nH]cnc2ncnc1-2 | 99% | 89% | 88% | – | –
NCCCCN(CCCN)c1nc(N)nc(N)n1 | 73% | 47% | 29% | – | > 270 µM
